The source made the active and inactive calls.
Assays:
[1] = target: T1, Rac GTPase-activating protein 1 (Homo sapiens, UniProt Q9H0H5); test: blockers of MgcRacGAP-driven Rac1 GTP hydrolysis – biochemical, ADP Hunter fluorescence, primary and confirmatory, confirmation (AID 624330); type: functional
T1 sequence (Q9H0H5 whole entry): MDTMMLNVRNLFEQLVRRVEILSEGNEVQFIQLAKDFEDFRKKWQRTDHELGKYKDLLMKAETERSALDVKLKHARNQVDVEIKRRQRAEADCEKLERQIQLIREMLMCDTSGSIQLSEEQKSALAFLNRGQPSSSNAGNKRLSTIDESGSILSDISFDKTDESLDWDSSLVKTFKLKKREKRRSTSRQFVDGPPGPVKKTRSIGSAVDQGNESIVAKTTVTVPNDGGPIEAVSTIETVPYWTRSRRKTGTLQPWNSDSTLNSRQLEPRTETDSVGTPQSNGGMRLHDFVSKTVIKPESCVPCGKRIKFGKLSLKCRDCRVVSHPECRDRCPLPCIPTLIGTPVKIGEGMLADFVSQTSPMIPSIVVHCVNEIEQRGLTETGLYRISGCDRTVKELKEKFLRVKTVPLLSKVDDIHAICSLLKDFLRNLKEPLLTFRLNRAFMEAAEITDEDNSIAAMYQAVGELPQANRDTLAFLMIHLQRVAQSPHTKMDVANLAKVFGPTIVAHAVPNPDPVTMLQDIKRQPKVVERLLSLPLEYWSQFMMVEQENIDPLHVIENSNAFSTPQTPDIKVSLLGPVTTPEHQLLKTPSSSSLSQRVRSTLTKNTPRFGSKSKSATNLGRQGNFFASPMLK

[2] = target: Large T antigen (Simian virus 40, UniProt P03070); type: functional, Betapolyomavirus macacae;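 also: Confirmatory-stage PubChem screen for compounds that inhibit SV40 T antigen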
Sequence of Large T antigen (P03070 whole entry): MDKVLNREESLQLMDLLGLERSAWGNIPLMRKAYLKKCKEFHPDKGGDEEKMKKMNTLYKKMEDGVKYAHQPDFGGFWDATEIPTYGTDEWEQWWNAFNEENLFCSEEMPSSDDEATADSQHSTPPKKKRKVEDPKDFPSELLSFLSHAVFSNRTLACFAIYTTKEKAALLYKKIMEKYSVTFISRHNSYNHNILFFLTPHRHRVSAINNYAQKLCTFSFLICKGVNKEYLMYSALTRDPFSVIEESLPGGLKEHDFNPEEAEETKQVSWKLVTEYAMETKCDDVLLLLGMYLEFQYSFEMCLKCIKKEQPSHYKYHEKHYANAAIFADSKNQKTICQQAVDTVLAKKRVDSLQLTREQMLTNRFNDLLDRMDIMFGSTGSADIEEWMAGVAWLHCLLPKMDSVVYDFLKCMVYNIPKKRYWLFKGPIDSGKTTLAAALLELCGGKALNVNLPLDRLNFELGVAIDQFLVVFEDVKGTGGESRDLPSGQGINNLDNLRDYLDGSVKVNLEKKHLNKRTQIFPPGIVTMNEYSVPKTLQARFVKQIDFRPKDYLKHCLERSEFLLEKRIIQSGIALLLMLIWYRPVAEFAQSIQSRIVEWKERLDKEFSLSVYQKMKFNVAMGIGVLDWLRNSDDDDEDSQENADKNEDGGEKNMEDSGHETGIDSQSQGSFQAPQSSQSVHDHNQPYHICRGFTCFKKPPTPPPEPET

[3] = target: T2, Long-chain-fatty-acid--AMP ligase FadD28 (Mycobacterium tuberculosis, UniProt P9WQ59); test: Fluorescence polarization aasay to screen for inhibitors that compete for the binding of FadD28 to a bisubstrate Measured in Biochemical System Using Plate Reader - 2147-01_Inhibitor_Dose_CherryPick_Activity.; type: functional, Mycobacterium tuberculosis H37Rv
T2 sequence (P9WQ59 whole entry): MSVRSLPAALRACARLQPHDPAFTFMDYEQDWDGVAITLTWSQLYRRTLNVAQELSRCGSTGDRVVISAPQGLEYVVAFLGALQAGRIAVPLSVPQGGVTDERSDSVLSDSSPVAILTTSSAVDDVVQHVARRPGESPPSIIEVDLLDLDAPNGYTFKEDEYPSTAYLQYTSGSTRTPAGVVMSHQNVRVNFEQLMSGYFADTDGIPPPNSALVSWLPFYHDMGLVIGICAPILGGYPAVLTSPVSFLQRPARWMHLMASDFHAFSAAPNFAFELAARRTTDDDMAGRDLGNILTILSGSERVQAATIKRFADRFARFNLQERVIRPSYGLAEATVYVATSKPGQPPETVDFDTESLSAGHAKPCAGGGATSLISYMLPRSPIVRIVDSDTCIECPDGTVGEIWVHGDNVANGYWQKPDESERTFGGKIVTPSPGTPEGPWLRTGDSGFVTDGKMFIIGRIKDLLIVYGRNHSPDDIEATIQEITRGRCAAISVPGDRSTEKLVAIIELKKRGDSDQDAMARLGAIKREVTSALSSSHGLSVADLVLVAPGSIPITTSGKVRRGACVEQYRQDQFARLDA

[4] = system: BJ; test: BJ-TERT-LT-ST fibroblast viability loss – cell-based, RAS-independent, luminescence, dose response (AID 1935); type: functional; conditions: Homo sapiens;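 also: BJ fibroblasts immortalized with TERT plus LT and ST oncogenes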
[5] = cells; type: functional, cell-based
[6] = DRD fibroblast viability loss – cell-based, non-viral oncogenic, luminescence, dose response (AID 1934); type: functional; conditions: Homo sapiens
[7] = system: BJ; test: BJ-TERT fibroblast viability loss – cell-based, RAS-independent, luminescence, dose response (AID 1933); type: functional; conditions: Homo sapiens
[8] = target: T3, Streptokinase A (Streptococcus pyogenes serotype M1, UniProt P10520); test: viability-normalized secreted streptokinase activity reduction – plasminogen activation absorbance, OD405, dose response (AID 1914); type: functional, Streptococcus pyogenes M1 GAS;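 also: secreted streptokinase activity via plasminogen activation per viability signal from cell pellet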
T3 sequence (P10520 whole entry): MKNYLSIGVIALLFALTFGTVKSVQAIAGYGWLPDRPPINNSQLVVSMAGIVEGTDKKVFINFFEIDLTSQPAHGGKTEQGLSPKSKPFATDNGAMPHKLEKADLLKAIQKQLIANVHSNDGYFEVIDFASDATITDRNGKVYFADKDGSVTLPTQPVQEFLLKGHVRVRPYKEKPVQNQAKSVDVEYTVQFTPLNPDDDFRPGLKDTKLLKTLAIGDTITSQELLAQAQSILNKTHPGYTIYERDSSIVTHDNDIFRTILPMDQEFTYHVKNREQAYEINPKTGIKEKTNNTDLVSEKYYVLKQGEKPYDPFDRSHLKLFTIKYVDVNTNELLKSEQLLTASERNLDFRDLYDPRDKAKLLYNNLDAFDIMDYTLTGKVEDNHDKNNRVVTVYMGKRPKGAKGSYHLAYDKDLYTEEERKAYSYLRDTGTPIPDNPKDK

[9] = system: Streptococcus sp. 'group A'; test: Streptococcus pyogenes SK(-)GAS viability under kanamycin – luminescence, BacTiterGlo, confirmation, counter-screen for streptokinase expression inhibitor project, dose response (AID 1900); type: functional, organism-based
[10] = target: T4, Nuclear receptor subfamily 0 group B member 1 (Homo sapiens, UniProt P51843); type: functional, cell-based;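 also: HEK293T cells transfected with SF-1 and DAX-1 plus StAR promoter luciferase reporter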
T4 sequence (P51843 whole entry): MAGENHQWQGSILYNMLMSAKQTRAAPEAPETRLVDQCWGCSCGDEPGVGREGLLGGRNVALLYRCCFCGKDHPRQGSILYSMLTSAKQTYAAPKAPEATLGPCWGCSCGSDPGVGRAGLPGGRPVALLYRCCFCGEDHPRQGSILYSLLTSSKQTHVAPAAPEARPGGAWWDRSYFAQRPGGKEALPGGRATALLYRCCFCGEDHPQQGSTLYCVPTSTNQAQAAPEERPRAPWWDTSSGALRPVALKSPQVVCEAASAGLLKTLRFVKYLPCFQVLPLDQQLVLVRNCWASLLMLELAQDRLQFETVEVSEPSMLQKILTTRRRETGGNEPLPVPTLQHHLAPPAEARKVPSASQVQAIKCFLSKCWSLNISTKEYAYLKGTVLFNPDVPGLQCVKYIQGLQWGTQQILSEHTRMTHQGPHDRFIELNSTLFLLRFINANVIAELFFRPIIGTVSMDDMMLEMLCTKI

[11] = target: Luciferin 4-monooxygenase (Photinus pyralis, UniProt P08659); test: inhibition of purified Photinus pyralis luciferase – biochemical, luminescence, dose response (AID 1891)
Sequence of Luciferin 4-monooxygenase (P08659 whole entry): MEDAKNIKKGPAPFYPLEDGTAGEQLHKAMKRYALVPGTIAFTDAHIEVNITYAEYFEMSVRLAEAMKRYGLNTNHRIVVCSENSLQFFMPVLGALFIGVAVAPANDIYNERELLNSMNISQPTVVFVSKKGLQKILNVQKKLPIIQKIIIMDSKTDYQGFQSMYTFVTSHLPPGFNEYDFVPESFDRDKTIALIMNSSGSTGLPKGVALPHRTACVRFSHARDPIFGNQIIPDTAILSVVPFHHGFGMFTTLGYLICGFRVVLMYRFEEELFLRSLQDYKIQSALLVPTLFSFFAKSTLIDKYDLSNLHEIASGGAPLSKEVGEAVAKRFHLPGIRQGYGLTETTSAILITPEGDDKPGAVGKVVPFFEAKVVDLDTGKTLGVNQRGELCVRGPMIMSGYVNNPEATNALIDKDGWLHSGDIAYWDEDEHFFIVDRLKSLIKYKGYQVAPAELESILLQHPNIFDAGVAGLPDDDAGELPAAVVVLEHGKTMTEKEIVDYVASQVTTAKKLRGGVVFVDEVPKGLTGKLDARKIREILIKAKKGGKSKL

[12] = system: BJ; test: cells; type: functional, cell-based; conditions: Homo sapiens
[13] = Luminescence Cell-Based Dose Confirmation HTS to Identify Inhibitors of Platelet Dense Granule Release. [Related pubchem assays: 1663 (Primary HTS), 1678 (Summary of Project)]; type: functional
[14] = system: Streptococcus; test: GAS UMAA2166 growth inhibition – luminescence, BacTiterGlo, counter-screen for streptokinase expression inhibitor project, dose response (AID 1915); type: functional, organism-based;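 also: potency for reduction of bacterial viability or growth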
[15] = target: 5-hydroxytryptamine receptor 2A (Mus musculus, UniProt P35363); type: functional, cell-based;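 also: CHO-K1 cells with tagged receptor and beta-arrestin; agonist potency measured as compound-induced activation of the receptor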
Sequence of 5-hydroxytryptamine receptor 2A (P35363 whole entry): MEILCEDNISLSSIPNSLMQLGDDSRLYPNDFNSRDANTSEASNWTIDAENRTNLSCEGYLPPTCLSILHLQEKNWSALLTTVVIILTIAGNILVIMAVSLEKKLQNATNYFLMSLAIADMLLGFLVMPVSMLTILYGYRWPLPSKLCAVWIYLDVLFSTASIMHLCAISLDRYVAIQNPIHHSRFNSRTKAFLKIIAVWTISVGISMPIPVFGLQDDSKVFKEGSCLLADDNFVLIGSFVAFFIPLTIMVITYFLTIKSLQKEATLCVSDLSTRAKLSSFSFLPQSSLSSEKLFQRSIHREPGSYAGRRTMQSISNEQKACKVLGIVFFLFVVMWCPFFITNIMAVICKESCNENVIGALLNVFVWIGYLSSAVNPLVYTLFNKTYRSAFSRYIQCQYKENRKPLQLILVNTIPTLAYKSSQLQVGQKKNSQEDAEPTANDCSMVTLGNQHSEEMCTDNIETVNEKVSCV

[16] = target: Mu-type opioid receptor (Homo sapiens, UniProt P35372); type: functional, cell-based;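 also: U2OS cells with beta-arrestin recruitment to OPRM1 by beta-gal complementation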
Sequence of Mu-type opioid receptor (P35372 whole entry): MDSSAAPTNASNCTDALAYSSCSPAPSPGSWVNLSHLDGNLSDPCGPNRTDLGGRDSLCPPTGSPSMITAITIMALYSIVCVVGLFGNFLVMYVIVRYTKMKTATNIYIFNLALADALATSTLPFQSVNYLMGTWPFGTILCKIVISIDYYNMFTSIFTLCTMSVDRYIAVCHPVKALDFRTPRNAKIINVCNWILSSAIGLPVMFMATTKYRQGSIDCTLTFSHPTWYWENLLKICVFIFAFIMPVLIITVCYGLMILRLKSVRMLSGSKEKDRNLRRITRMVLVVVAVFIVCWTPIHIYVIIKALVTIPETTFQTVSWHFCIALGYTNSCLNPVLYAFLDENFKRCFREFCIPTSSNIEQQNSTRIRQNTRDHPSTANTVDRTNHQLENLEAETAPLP

[17] = target: T5, Heat shock factor protein 1 (Mus musculus, UniProt P38532); test: enhancement of HSF1-driven luciferase signal – cell-based, NIH3T3, luminescence, dose retest, confirmation (AID 435004); type: functional;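 also: stress induced by proteasome inhibitor MG132 added 30 min after compound; luciferase reporter driven by HSF1 response element in NIH3T3 cells; actives raise luminescence as potentiators of the MG132 stress response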
T5 sequence (P38532 whole entry): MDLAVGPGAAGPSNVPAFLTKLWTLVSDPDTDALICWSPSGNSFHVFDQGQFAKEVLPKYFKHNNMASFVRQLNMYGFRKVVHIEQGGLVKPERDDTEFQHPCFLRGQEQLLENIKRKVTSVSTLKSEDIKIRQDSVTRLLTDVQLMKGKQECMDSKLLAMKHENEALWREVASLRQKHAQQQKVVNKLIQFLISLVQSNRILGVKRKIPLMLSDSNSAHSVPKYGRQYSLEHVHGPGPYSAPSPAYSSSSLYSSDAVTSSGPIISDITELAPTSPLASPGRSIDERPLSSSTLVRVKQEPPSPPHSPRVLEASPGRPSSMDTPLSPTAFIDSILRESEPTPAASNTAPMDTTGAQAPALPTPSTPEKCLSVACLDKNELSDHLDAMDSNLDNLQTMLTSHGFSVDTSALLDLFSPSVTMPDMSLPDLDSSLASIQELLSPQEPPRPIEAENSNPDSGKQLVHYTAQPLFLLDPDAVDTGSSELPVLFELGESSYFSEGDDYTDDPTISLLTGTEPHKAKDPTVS

[18] = target: T6, RNA-binding protein pos-1 (Caenorhabditis elegans, UniProt G5EF15); test: disruptors of C. elegans POS-1 RNA interaction – biochemical, fluorescence polarization, dose response (AID 1964);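 also: purified POS-1 fused to maltose binding protein made in E. coli; potency of compounds blocking POS-1 binding to fluorescent RNA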
T6 sequence (G5EF15 whole entry): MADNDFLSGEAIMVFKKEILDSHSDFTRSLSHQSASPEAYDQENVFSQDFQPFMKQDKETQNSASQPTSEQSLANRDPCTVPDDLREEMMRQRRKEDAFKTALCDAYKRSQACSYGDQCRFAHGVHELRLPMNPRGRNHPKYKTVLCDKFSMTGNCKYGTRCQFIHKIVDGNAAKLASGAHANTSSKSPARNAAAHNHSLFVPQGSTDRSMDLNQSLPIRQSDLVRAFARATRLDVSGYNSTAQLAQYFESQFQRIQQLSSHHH

[19] = target: T7, Zinc finger protein mex-5 (Caenorhabditis elegans, UniProt Q9XUB2); test: potency of MEX-5 RNA-binding blockers – biochemical, C. elegans, fluorescence polarization, dose response (AID 1960)
T7 sequence (Q9XUB2 whole entry): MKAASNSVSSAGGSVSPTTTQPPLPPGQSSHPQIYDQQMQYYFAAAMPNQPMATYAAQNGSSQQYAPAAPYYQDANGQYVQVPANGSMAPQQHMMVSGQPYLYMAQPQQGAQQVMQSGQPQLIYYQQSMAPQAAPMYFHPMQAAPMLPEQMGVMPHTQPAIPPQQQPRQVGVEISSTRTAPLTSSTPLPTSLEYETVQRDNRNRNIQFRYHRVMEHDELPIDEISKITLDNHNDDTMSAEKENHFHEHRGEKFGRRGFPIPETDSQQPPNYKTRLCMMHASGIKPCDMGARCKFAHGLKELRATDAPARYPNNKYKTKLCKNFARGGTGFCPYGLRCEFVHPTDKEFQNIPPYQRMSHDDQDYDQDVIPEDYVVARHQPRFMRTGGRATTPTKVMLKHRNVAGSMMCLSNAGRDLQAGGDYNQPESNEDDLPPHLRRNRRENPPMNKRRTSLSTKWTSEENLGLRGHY

[20] = HIV-1 AD8 envelope cell-cell fusion blockers – cherry-pick, dose response (AID 652062); type: functional, cell-based;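 also: luciferase signal from cell-cell fusion driven by HIV-1 clade B AD8 Env; potency is for inhibitors of fusion seen as a drop in luminescence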
[21] = blockers of HIV-1 envelope-mediated cell-cell fusion – cherry-pick, dose response (AID 652057); type: functional, cell-based
[22] = off-target signal loss in HeLa-CEM21 co-culture – HeLa F-luc CTL cells, cherry-picked, counter-screen for HIV-1 Env fusion inhibitor project, dose response (AID 652040); type: functional, cell-based;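 also: potency for signal decrease marking cytotoxic or nonspecific inhibition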
[23] = blockers of HIV-1 ZM109 envelope-driven cell-cell fusion – HeLa effector, CEM target cells, luciferase, cherry-pick, dose response (AID 652058); type: functional, cell-based;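 also: luciferase signal from HIV-1 Env mediated cell-cell fusion of effector and target cells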
[24] = viability loss in CEM21 cells – cell-based, CellTiter-Glo luminescence, cherry-picked, cytotoxicity control for viral fusion inhibitor project, dose response (AID 652042); type: functional;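 also: potency for signal decrease meaning cytotoxicity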
[25] = target: FAD-linked sulfhydryl oxidase ALR (Homo sapiens, UniProt P55789); test: ALR-catalysed DTT oxidation blockers – biochemical, H2O2 detection, luminescence, cherry-pick, dose response (AID 493248)
Sequence of FAD-linked sulfhydryl oxidase ALR (P55789 whole entry): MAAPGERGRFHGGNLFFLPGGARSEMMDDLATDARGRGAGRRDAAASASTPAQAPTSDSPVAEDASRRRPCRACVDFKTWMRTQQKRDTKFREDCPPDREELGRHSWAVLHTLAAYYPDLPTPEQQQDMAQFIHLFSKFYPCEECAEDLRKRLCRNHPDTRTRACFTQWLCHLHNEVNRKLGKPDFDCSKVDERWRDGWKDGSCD

## OC1CCN(C(S)=Nc2ccc(Nc3ccccc3)cc2)CC1
[1]
  IC50: 38.7 µM (active)
[2]
  IC50: 6.93 µM (active)
[3]
  AC50: > 100 µM (inactive)

## O=Nc1c2cc(-c3ccccc3)n[nH]c-2c2ccccc12
[4]
  EC50: > 150 µM (not active)
[5]
  IC50: > 67.5 µM (inactive)
[6]
  EC50: 4.14 µM (active)
[7]
  EC50: 6.53 µM (active)
[8]
  EC50: > 150 µM (not active)
[9]
  EC50: 5.57 µM (active)
[10]
  IC50: > 0.833 µM (active)
[11]
  EC50: 0.222 µM (active)
[12]
  EC50: 6.29 µM (active)
[13]
  EC50: 1.47 µM (active)
[14]
  EC50: 14.7 µM (active)

## COc1cccc(CN2CCN(c3ncccn3)CC2)c1OC
[15]
  EC50: 21.6 µM (inactive)
[16]
  EC50: 92.5 µM (inactive)

## OCC1(Cc2cccc(C(F)(F)F)c2)CCN(Cc2cc3ccccc3o2)CC1
[17]
  EC50: > 260 µM (inactive)
[15]
  EC50: 3.6 µM (active)
[16]
  EC50: 92.5 µM (inactive)

## Cc1cccc(NC(=O)CN2C(=O)N/C(=C\c3cccn3-c3cccc(C(=O)O)c3)C2=O)c1
[18]
  EC50: > 300 µM (not active)
[3]
  AC50: > 100 µM (inactive)
[19]
  EC50: > 300 µM (not active)

## O=C(CSc1cccc[n+]1[O-])c1ccc(-c2ccccc2)cc1
[5]
  IC50: > 67.5 µM (inactive)
[10]
  IC50: > 67.5 µM (inactive)

## C(=C\c1ccccc1)/CN1CCN(C(c2nnnn2-c2ccc3c(c2)OCCO3)C2CC2)CC1 (stereo not drawn)
[15]
  EC50: 76 µM (inactive)
[16]
  EC50: 92.3 µM (inactive)

## Cc1cnc(C)c(Nc2nc(C(N)Cc3ccc(C(F)(F)F)cc3)cs2)n1 (stereo not drawn)
[20]
  AC50: 7.29 µM (active)
[21]
  AC50: 5.44 µM (active)
[22]
  AC50: 5.07 µM (active)
[23]
  AC50: 10.5 µM (active)
[24]
  AC50: 18.1 µM (active)

## O=C(O)c1cccc2c1-c1ccccc1/C2=N\Nc1ccccc1
[25]
  AC50: 0.264 µM (active)
[3]
  AC50: > 100 µM (inactive)

From ChEMBL document CHEMBL1201862, “PubChem BioAssay data set” (2004)
